The source of these data is ChEMBL document CHEMBL5046316, “Structure-Based Optimization of a Fragment-like TLR8 Binding Screening Hit to an In Vivo Efficacious TLR7/8 Antagonist” (ACS Med Chem Lett, 2022).

Molecules are shown by their SMILES. Where only a bound is given, the exact number is not on record here.

The nature of data set [1]: Volume of distribution at steady state in Balb/c mouse at 10 mg/kg, po or 1 mg/kg, iv administered as cassette dose measured upto 24 hrs by LC/MS/MS analysis. The class given is ADME, organism-based. As to conditions: in vivo, read-out: Vdss; call rule not given here.
The next data set has as its target Toll-like receptor 4 (Homo sapiens, UniProt O00206). Briefly: Antagonist activity at human TLR4 expressed in human whole blood assessed as inhibition of LPS stimulated TNF level preincubated for 30 mins followed by stimulation and measured after 20 hrs by multiplate reader assay. The format is tissue-based.
Data set [2] addresses Voltage-gated inwardly rectifying potassium channel KCNH2 (Homo sapiens, UniProt Q12809). Briefly: Inhibition of human ERG. The class given is toxicity.
In a further data set the target is T1, Toll-like receptor 7 (Mus musculus, UniProt P58681).
T1 sequence (P58681 whole entry): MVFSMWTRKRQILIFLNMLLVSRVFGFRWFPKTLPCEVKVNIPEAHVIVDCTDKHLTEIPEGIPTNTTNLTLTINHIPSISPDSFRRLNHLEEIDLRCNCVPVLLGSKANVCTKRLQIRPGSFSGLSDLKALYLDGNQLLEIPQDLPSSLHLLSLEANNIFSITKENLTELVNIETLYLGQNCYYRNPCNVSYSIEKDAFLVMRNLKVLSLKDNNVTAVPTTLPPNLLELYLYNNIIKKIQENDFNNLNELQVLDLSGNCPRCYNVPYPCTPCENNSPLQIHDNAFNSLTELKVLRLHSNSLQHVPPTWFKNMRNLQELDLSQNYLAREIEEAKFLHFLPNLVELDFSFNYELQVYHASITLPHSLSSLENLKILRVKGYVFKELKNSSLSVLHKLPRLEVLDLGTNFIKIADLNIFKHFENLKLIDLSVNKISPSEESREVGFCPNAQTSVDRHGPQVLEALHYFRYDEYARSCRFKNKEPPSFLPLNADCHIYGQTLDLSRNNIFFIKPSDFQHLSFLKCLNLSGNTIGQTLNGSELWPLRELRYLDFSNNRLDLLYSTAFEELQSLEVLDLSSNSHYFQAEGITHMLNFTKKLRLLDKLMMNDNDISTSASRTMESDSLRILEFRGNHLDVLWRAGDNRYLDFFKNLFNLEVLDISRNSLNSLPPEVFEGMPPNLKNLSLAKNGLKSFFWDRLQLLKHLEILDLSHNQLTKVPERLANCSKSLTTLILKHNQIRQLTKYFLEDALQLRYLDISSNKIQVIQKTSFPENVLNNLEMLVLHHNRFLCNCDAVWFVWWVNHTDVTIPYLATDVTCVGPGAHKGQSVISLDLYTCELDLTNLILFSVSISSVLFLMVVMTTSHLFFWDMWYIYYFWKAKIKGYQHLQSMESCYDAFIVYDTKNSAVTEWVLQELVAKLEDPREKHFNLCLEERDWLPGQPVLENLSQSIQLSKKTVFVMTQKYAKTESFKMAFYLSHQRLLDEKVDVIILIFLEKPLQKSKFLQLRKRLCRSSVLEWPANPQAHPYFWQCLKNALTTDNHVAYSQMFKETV
Kind of data set: Antagonist activity at mouse TLR7 expressed in human PBMC cells assessed as inhibition of ssRNA stimulated IFNalpha level preincubated for 30 mins followed by stimulation and measured after 20 hrs by AlphaLISA method. The format is cell-based.

The nature of data set [3]: Drug exposure in 129Sv mouse blood at 1 mg/kg, po by LC-MS/MS analysis. The format is ADME, organism-based. The settings on record: in vivo, read-out: Drug uptake.
The nature of data set [4]: Octanol/water partition coefficient, logD of compound at pH 7.4 measured after 4 hrs by shake flask method. The class given is physicochemical.
Data set [5] in a line: Dissociation constant, pKa of the compound by UV spectrometric titration method. The class given is physicochemical.
Data set [6] is described as follows: Dose normalized Cmax in Balb/c mouse at 10 mg/kg, po and 1 mg/kg, iv administered as cassette dose measured upto 24 hrs by LC/MS/MS analysis. The format is ADME, organism-based. As to conditions: in vivo.
In another data set the target is T2, Toll-like receptor 9 (Homo sapiens, UniProt Q9NR96).
T2 sequence (Q9NR96 whole entry): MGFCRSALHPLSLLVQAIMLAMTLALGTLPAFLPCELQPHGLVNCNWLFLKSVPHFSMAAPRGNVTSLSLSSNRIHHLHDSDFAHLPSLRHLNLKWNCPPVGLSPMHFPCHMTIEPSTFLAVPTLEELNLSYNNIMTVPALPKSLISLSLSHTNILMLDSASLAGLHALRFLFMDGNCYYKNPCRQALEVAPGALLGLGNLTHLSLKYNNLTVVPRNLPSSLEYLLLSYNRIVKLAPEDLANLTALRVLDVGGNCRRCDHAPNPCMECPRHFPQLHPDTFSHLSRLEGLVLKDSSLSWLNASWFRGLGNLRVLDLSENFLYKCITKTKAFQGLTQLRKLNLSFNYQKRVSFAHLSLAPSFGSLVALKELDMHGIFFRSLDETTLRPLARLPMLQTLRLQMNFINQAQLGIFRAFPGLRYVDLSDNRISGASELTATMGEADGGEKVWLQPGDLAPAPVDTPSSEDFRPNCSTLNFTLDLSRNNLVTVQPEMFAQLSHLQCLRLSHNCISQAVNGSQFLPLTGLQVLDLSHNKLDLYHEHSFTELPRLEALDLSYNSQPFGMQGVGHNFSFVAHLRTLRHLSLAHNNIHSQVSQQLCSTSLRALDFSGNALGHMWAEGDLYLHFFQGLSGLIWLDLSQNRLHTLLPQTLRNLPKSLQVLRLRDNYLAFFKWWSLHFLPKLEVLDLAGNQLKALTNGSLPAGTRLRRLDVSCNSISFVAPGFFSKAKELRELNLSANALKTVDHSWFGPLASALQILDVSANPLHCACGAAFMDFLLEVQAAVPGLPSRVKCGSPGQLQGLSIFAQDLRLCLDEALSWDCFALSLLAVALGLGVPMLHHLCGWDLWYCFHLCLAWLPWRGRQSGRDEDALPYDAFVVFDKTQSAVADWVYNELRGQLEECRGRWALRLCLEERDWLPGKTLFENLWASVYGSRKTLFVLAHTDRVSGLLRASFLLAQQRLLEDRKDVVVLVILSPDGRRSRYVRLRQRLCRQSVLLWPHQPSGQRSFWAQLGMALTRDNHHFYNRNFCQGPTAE
Kind of data set: Antagonist activity at human TLR9 expressed in human PBMC cells assessed as inhibition of ODN2216 stimulated IFNalpha level preincubated for 30 mins followed by stimulation and measured after 20 hrs by AlphaLISA method. The format is cell-based.

Data set [7] in a line: Oral bioavailability in Balb/c mouse at 10 mg/kg administered as cassette dose measured upto 24 hrs by LC/MS/MS analysis. The class given is ADME, organism-based. As to conditions: in vivo.
A further data set concerns the target Cytochrome P450 3A4 (Homo sapiens, UniProt P08684). Kind of data set: Inhibition of CYP3A4 (unknown origin). The format is ADME.
Data set [8] is described as follows: Dose normalized AUC in Balb/c mouse at 10 mg/kg, po and 1 mg/kg,iv administered as cassette dose measured upto 24 hrs by LC/MS/MS analysis. The format is ADME, organism-based. The arrangement: dose 10 mg/kg, time <=24. As to conditions: in vivo.

Toll-like receptor 4, sequence (O00206 whole entry): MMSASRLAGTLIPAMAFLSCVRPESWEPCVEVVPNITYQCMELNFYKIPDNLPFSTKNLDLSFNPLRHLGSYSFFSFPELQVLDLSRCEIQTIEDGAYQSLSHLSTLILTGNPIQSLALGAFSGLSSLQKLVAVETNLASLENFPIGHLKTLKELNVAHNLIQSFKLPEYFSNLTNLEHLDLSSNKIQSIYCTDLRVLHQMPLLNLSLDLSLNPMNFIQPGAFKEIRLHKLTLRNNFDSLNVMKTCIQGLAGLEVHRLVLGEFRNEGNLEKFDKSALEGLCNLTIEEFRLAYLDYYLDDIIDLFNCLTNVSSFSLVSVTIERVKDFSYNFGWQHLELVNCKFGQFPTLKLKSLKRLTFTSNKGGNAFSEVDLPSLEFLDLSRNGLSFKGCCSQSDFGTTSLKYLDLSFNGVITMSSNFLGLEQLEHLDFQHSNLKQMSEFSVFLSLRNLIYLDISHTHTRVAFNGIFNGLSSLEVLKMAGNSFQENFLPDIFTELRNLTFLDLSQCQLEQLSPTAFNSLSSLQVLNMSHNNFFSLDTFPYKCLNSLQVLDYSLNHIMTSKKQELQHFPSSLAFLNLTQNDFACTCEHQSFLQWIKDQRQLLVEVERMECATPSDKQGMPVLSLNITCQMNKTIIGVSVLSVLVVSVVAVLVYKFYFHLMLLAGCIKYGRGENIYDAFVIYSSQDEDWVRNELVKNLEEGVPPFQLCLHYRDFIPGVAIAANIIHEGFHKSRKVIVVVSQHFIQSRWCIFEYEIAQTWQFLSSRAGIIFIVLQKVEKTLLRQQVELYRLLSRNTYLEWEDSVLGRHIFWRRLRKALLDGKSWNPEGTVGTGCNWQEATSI
Voltage-gated inwardly rectifying potassium channel KCNH2, sequence (Q12809 whole entry): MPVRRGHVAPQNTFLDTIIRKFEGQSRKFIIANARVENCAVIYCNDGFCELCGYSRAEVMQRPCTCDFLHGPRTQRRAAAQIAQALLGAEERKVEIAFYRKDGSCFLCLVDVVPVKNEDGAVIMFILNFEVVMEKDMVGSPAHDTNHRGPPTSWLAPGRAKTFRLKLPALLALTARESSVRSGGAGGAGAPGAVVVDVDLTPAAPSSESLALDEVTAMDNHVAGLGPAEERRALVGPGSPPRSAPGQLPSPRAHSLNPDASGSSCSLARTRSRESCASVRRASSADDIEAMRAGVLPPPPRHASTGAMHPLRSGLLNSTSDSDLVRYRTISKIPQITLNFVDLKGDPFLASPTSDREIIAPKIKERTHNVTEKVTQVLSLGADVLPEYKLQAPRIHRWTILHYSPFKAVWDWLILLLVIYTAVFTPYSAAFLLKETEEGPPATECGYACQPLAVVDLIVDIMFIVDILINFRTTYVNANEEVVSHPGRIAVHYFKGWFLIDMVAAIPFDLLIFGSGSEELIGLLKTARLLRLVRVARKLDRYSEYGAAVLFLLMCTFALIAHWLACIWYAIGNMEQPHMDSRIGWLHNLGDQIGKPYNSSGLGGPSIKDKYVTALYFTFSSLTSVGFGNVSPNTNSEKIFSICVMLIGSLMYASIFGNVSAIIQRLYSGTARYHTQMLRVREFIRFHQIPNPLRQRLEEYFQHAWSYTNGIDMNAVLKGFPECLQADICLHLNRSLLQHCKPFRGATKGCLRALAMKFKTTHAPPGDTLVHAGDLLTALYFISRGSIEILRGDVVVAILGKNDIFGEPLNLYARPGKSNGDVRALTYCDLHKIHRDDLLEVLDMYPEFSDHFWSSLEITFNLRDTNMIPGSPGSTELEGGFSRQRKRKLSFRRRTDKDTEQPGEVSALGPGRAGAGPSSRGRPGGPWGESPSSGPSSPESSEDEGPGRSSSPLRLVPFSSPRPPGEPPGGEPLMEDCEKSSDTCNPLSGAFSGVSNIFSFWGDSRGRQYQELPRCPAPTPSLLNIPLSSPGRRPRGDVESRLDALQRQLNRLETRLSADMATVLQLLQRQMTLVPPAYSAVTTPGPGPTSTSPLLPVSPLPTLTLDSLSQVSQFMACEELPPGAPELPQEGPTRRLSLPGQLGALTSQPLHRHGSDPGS
Cytochrome P450 3A4, sequence (P08684 whole entry): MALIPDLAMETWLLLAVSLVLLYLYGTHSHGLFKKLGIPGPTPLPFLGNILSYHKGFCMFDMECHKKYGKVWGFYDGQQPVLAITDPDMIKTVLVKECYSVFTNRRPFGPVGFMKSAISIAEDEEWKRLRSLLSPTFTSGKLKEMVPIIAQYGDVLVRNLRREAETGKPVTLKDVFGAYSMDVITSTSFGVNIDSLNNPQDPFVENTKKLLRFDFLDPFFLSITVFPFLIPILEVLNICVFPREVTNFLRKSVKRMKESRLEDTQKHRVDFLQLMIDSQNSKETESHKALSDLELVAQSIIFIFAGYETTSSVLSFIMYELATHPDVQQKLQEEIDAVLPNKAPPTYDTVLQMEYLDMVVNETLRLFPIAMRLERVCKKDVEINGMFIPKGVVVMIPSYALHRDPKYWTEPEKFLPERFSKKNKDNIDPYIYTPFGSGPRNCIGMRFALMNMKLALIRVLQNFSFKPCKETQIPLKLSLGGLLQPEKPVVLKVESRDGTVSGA

On to `Cc1cc(-c2cc3[nH]nc(N[C@@H]4CCNC[C@H]4F)c3cc2C2CC2)cc(C)n1`, for which the Vd in data set [1] is 8.4 L/kg. Further, the half-maximal inhibitory concentration (IC50) is above 10 µM at Toll-like receptor 4; above 30 µM in [2]; “Not Active” at Toll-like receptor 7; above 0.57 µM on Toll-like receptor 9; above 25 µM on Cytochrome P450 3A4. Also, the concentration in data set [3] came out at 8 nM. The logD at 4 h in data set [4] was found to be 2.7. Besides, the pKa in [5] is 6.7. Also, in data set [6], the Cmax/dose came out at 79 nM/mg/kg. Further, in [7], the bioavailability was determined as 38%. The compound further registered an AUC in data set [8] of 304 nM·h/mg/kg.

As usually defined, the IC50 is the concentration that inhibits the measured activity by half. For orientation: logD means lipophilicity at a set pH, counting ionised and neutral species. Broadly, the pKa is the pH at which an ionisable group is half protonated. Low readings indicate a stronger acid or weaker base, high ones a weaker acid or stronger base. The bioavailability is dose-corrected exposure relative to a reference, in per cent. Read a low bioavailability as poor availability.
